According to article PMC9090415, “Discovery of small molecule inhibitors of Plasmodium falciparum apicoplast DNA polymerase” (Journal of Enzyme Inhibition and Medicinal Chemistry, 2022):

Target: P. falciparum apicoplast DNA polymerase (Pf-apPOL) (Plasmodium falciparum, UniProt Q8ILY1)
Test: Fluorescence-based high-throughput DNA polymerase assay (molecular beacon), primary screen and dose-response;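 as to % inhibition Apol 40': compound concentration given in µM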
Assay type: biochemical
Details: for DNA Pol: 90 min, 10 µM
Outline: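 Single-point screening used 10 µM compound with 20 nM polymerase, 20 nM hairpin substrate and 6 µM dNTPs for 90 min at 25 °C. Confirmatory titrations (2.5–80 µM) followed fluorescence at three times, and IC50 was derived from a fit including a cooperativity term n.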

Sequence of P. falciparum apicoplast DNA polymerase (Pf-apPOL) (Q8ILY1 entry or part of it): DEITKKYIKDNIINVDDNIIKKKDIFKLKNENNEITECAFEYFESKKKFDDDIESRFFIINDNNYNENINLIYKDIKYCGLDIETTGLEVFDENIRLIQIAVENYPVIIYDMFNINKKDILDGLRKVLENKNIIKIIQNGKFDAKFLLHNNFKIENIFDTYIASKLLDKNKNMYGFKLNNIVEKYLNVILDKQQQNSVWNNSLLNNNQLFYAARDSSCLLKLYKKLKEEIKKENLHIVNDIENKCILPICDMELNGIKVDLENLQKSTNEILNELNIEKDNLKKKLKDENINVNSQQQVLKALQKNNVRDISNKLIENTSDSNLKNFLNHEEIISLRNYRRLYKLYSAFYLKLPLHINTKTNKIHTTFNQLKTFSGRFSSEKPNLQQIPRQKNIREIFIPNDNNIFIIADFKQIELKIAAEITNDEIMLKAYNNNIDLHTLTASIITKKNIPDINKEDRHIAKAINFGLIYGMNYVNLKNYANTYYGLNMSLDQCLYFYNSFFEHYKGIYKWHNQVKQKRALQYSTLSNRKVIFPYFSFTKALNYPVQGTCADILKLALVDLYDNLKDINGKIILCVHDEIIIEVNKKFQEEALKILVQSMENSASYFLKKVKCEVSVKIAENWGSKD

COc1cccc(Oc2c(C(F)(F)F)oc3cc(OC(=O)N(C)C)ccc3c2=O)c1 [Molecule 52, COc1cccc(c1)Oc1c(=O)c2ccc(cc2oc1C(F)(F)F)OC(=O)N(C)C]
DNA Pol ('DNA Pol' of the 186 hits list (primary screen value)): 61 | DNA Pol (DNA Pol (primary screen value)): 61 | % inhibition Apo pol 10' (DRC-1, concentration 2.5): 6.553% | % inhibition Apo pol 10' (DRC-1, concentration 5): 12.9509% | % inhibition Apo pol 10' (DRC-1, concentration 10): 26.9326% | % inhibition Apo pol 10' (DRC-1, concentration 20): 35.5271% | % inhibition Apo pol 10' (DRC-1, concentration 40): 51.7019% | % inhibition Apo pol 10' (DRC-1, concentration 80): 57.2765% | % inhibition Apol 90' (DRC-1, concentration 2.5): 11.9844% | % inhibition Apol 90' (DRC-1, concentration 5): 19.0717% | % inhibition Apol 90' (DRC-1, concentration 10): 34.8904% | % inhibition Apol 90' (DRC-1, concentration 20): 41.7615% | % inhibition Apol 90' (DRC-1, concentration 40): 58.6612% | % inhibition Apol 90' (DRC-1, concentration 80): 63.3235% | % inhibition apPOL 180' (DRC-1, concentration 2.5): 22.4742% | % inhibition apPOL 180' (DRC-1, concentration 5): 28.9407% | % inhibition apPOL 180' (DRC-1, concentration 10): 43.333% | % inhibition apPOL 180' (DRC-1, concentration 20): 44.974% | % inhibition apPOL 180' (DRC-1, concentration 40): 65.9617% | % inhibition apPOL 180' (DRC-1, concentration 80): 64.6101% | % inhibition Apo pol 5' (DRC-2, concentration 2.5): 15% | % inhibition Apo pol 5' (DRC-2, concentration 5): 18% | % inhibition Apo pol 5' (DRC-2, concentration 10): 27% | % inhibition Apo pol 5' (DRC-2, concentration 20): 32% | % inhibition Apo pol 5' (DRC-2, concentration 40): 40% | % inhibition Apo pol 5' (DRC-2, concentration 80): 42% | % inhibition Apol 40' (DRC-2, concentration 2.5): 14% | % inhibition Apol 40' (DRC-2, concentration 5): 14% | % inhibition Apol 40' (DRC-2, concentration 10): 33% | % inhibition Apol 40' (DRC-2, concentration 20): 41% | % inhibition Apol 40' (DRC-2, concentration 40): 50% | % inhibition Apol 40' (DRC-2, concentration 80): 56% | % inhibition ApPOL 90' (DRC-2, concentration 2.5): 14% | % inhibition ApPOL 90' (DRC-2, concentration 5): 8% | % inhibition ApPOL 90' (DRC-2, concentration 10): 33% | % inhibition ApPOL 90' (DRC-2, concentration 20): 41% | % inhibition ApPOL 90' (DRC-2, concentration 40): 51% | % inhibition ApPOL 90' (DRC-2, concentration 80): 58% | % inhibition apPOL 180' (DRC-2, concentration 2.5): 6.57% | % inhibition apPOL 180' (DRC-2, concentration 5): -58% | % inhibition apPOL 180' (DRC-2, concentration 10): 24% | % inhibition apPOL 180' (DRC-2, concentration 20): 33% | % inhibition apPOL 180' (DRC-2, concentration 40): 45% | % inhibition apPOL 180' (DRC-2, concentration 80): 54%

O=C1C(=Cc2ccccc2O)Oc2ccc(O)cc21 [KU0196475]
DNA Pol ("DNA Pol" of the 186 hits list (screen value)): 17 | % inhibition Apo pol 10' (DRC-1, concentration 2.5): -5.1779% | % inhibition Apo pol 10' (DRC-1, concentration 5): -7.445% | % inhibition Apo pol 10' (DRC-1, concentration 10): 3.3875% | % inhibition Apo pol 10' (DRC-1, concentration 20): 10.6699% | % inhibition Apo pol 10' (DRC-1, concentration 40): 41.0111% | % inhibition Apo pol 10' (DRC-1, concentration 80): 68.8562% | % inhibition Apol 90' (DRC-1, concentration 2.5): -1.782% | % inhibition Apol 90' (DRC-1, concentration 5): -1.611% | % inhibition Apol 90' (DRC-1, concentration 10): 10.1306% | % inhibition Apol 90' (DRC-1, concentration 20): 24.1034% | % inhibition Apol 90' (DRC-1, concentration 40): 57.9717% | % inhibition Apol 90' (DRC-1, concentration 80): 77.3146% | % inhibition apPOL 180' (DRC-1, concentration 2.5): 3.033% | % inhibition apPOL 180' (DRC-1, concentration 5): 3.658% | % inhibition apPOL 180' (DRC-1, concentration 10): 21.7009% | % inhibition apPOL 180' (DRC-1, concentration 20): 41.2058% | % inhibition apPOL 180' (DRC-1, concentration 40): 72.3539% | % inhibition apPOL 180' (DRC-1, concentration 80): 79.2388% | % inhibition Apo pol 5' (DRC-2, concentration 2.5): -0.68% | % inhibition Apo pol 5' (DRC-2, concentration 5): 0.901% | % inhibition Apo pol 5' (DRC-2, concentration 10): 18% | % inhibition Apo pol 5' (DRC-2, concentration 20): 28% | % inhibition Apo pol 5' (DRC-2, concentration 40): 40% | % inhibition Apo pol 5' (DRC-2, concentration 80): 45% | % inhibition Apol 40' (DRC-2, concentration 2.5): 0.208% | % inhibition Apol 40' (DRC-2, concentration 5): -7.41% | % inhibition Apol 40' (DRC-2, concentration 10): 18% | % inhibition Apol 40' (DRC-2, concentration 20): 33% | % inhibition Apol 40' (DRC-2, concentration 40): 54% | % inhibition Apol 40' (DRC-2, concentration 80): 65% | % inhibition ApPOL 90' (DRC-2, concentration 2.5): 0% | % inhibition ApPOL 90' (DRC-2, concentration 5): -14% | % inhibition ApPOL 90' (DRC-2, concentration 10): 15% | % inhibition ApPOL 90' (DRC-2, concentration 20): 29% | % inhibition ApPOL 90' (DRC-2, concentration 40): 53% | % inhibition ApPOL 90' (DRC-2, concentration 80): 66% | % inhibition apPOL 180' (DRC-2, concentration 2.5): -3.48% | % inhibition apPOL 180' (DRC-2, concentration 5): -88% | % inhibition apPOL 180' (DRC-2, concentration 10): 8% | % inhibition apPOL 180' (DRC-2, concentration 20): 17% | % inhibition apPOL 180' (DRC-2, concentration 40): 45% | % inhibition apPOL 180' (DRC-2, concentration 80): 63% | DNA Pol (primary screen value, DNA Pol): 17
